Target: T1, PRMT5/MEP50 (Homo sapiens, UniProt O14744)
T1 construct: Expressed full-length human Flag-PRMT5/6His-MeP50 protein complex was purified; made in house; host or cells: Spodoptera frugiperda (SF9) insect cells, baculovirus (pDEST8)
Assay: PRMT5 Biochemical Assay (PRMT5/MEP50 enzyme assay on peptide substrate, 3H-SAM Flashplate)
Settings: Table D-2; read-out: Biochemical IC50
Description: S-adenosylmethionine (SAM), S-adenosylhomocysteine (SAH), bicine, KCl, Tween20, dimethylsulfoxide (DMSO), bovine skin gelatin (BSG), and Tris(2-carboxyethyl)phosphine hydrochloride solution (TCEP) were purchased from Sigma-Aldrich at the highest level of purity possible. ^3H-SAM was purchase from American Radiolabeled Chemicals with a specific activity of 80 Ci/mmol 384-well streptavidin Flashplates were purchased from PerkinElmer.
Peptide representative of human histone H4 residues 1-15 was synthesized with a C-terminal linker-affinity tag motif and a C-terminal amide cap by 21st Century Biochemicals. […] The sequence was Ac-[…][K-Biot]-amide (SEQ ID NO.:3).
Full-length human MEP50 (NM_024102) clone was amplified from a human testis cDNA library incorporating a 5′ sequence encoding a 6-histidine tag (MHHHHHH) (SEQ ID NO.:5) fused directly to Arg 2 of MEP50. The amplified genes were sublconed into pENTR/D/TEV (Life Technologies) and subsequently transferred by Gateway™ attL×attR recombination to pDEST8 baculvirus expression vector (Life Technologies).
Recombinant baculovirus and Baculovirus-Infected Insect Cells (BIIC) were generated according to Bac-to-Bac kit instructions (Life Technologies) and Wasilko, 2006, respectively. Protein over-expression was accomplished by infecting exponentially growing Spodoptera frugiperda (SF9) cell culture at 1.2×10^6 cell/ml with a 5000 fold dilution of BIIC stock. Infections were carried out at 27° C. for 72 hours, harvested by centrifugation, and stored at −80° C. for purification.
Flag-PRMT5/6His-MeP50 was eluted with 300 mM Imidazole in the same buffer. […] Reference: Wasilko, D. J. and S. E. Lee: “TIPS: titerless infected-cells preservation and scale-up” Bioprocess J., 5 (2006), pp. 29-32.
General Procedure for PRMT5/MEP50 Enzyme Assays on Peptide Substrates.
The assays were all performed in a buffer consisting of 20 mM Bicine (pH=7.6), 1 mM TCEP, 0.005% BSG, and 0.002% Tween20, prepared on the day of use. Compounds in 100% DMSO (1 ul) were spotted into a polypropylene 384-well V-bottom plates (Greiner) using a Platemate Plus outfitted with a 384-channel head (Thermo Scientific). DMSO (1 ul) was added to Columns 11, 12, 23, 24, rows A-H for the maximum signal control and 1 ul of SAH, a known product and inhibitor of PRMT5/MEP50, was added to columns 11, 12, 23, 24, rows I-P for the minimum signal control. A cocktail (40 ul) containing the PRMT5/MEP50 enzyme and the peptide was added by Multidrop Combi (Thermo-Fisher). The compounds were allowed to incubate with PRMT5/MEP50 for 30 min at 25 degrees Celsius, then a cocktail (10 ul) containing ^3H-SAM was added to initiate the reaction (final volume=51 ul). The final concentrations of the components were as follows: PRMT5/MEP50 was 4 nM, ^3H-SAM was 75 nM, peptide was 40 nM, SAH in the minimum signal control wells was 100 uM, and the DMSO concentration was 1%. The assays were stopped by the addition of non-radioactive SAM (10 ul) to a final concentration of 600 uM, which dilutes the ^3H-SAM to a level where its incorporation into the peptide substrate is no longer detectable. 50 ul of the reaction in the 384-well polypropylene plate was then transferred to a 384-well Flashplate and the biotinylated peptides were allowed to bind to the streptavidin surface for at least 1 hour before being washed three times with 0.1% Tween20 in a Biotek ELx405 plate washer. The plates were then read in a PerkinElmer TopCount plate reader to measure the quantity of ^3H-labeled peptide bound to the Flashplate surface, measured as disintegrations per minute (dpm) or alternatively, referred to as counts per minute (cpm).
where dpm=disintegrations per minute, cmpd=signal in assay well, and min and max are the respective minimum and maximum signal controls.
where top and bottom are the normally allowed to float, but may be fixed at 100 or 0 respectively in a 3-parameter fit.

T1 sequence (O14744 with tags, fused parts or gaps): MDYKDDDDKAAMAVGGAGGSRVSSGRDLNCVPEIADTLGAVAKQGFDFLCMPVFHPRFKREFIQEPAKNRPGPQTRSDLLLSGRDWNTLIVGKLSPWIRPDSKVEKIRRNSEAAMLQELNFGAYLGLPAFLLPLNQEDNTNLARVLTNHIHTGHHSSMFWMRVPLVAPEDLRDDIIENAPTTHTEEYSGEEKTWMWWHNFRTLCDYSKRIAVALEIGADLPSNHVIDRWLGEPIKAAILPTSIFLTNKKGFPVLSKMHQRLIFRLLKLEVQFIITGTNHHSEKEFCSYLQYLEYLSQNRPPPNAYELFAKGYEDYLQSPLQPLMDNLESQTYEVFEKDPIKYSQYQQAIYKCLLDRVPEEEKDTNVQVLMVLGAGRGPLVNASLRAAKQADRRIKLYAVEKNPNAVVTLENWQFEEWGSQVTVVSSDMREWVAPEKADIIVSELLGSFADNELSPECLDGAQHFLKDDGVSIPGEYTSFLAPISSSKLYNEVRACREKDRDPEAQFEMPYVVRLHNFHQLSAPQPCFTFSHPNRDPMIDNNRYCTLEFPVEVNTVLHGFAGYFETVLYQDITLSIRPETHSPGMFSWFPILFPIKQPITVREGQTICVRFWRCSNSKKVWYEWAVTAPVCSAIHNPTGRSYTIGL
T1 sequence (Q9BQA1 with tags, fused parts or gaps partner limits assumed): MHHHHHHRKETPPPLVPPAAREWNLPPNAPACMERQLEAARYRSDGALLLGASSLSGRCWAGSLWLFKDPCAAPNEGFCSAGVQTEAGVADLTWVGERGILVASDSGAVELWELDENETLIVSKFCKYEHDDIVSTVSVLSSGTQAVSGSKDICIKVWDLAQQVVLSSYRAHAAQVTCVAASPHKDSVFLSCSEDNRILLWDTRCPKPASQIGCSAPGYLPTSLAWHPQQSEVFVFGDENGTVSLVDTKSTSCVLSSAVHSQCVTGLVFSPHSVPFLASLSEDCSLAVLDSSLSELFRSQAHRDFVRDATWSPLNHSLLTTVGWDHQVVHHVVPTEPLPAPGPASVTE

`OC(COc1ccccc1C1CCCCC1)CN1CCc2ccccc2C1` (stereo not shown) [Compound D8] and `OC(COc1cccc(C2CCCCC2)c1)CN1CCc2ccccc2C1` (stereo not shown) [Compound D52] fall in the same range of IC50: 1 to 10 µM for the first, 1 to 10 µM for the second.

Compared with `OC(COc1ccc(Cc2ccccc2)cc1)CN1CCc2ccccc2C1` (stereo not shown) [Compound D10], `OC(COc1ccc(OCc2ccccc2)cc1)CN1CCc2ccccc2C1` (stereo not shown) [Compound D19] is higher in IC50: 0.101 to 1 µM for the first, 1 to 10 µM for the second.

First: OC(COCc1cc(-c2ccc(Cl)cc2)no1)CN1CCc2ccccc2C1 (stereo not shown) [Compound D11]
Second: OC(COc1cccc(-c2ccc(Cl)cc2)c1)CN1CCc2ccccc2C1 (stereo not shown) [Compound D69]
The IC50 of the first is lower: 0.101 to 1 µM for the first, 1 to 10 µM for the second.

Compared with `OC(COc1cccc(CNC2CCNCC2)c1)CN1CCc2ccccc2C1` (stereo not shown) [Compound D13], `OC(CCc1cccc(CNC2CCCC2)c1)CN1CCc2ccccc2C1` (stereo not shown) [Compound D36] is higher in IC50: 1 to 10 µM for the first, 10 to 40 µM for the second. The first is the more potent here.

`OC(COc1cccc(CN2CCCCC2)c1)CN1CCc2ccccc2C1` (stereo not shown) [Compound D14] and `OC(COc1cccc(C2=CCCCC2)c1)CN1CCc2ccccc2C1` (stereo not shown) [Compound D57] fall in the same range of IC50: 1 to 10 µM for the first, 1 to 10 µM for the second.

First: OC(COc1cccc2ccc(N3CCOCC3)nc12)CN1CCc2ccccc2C1 (stereo not shown) [Compound D15]
Second: Cc1cc(OCC(O)CN2CCc3ccccc3C2)c(C)cc1CN1CCOCC1 (stereo not shown) [Compound D17]
The IC50 of the first is higher: 1 to 10 µM for the first, 0.101 to 1 µM for the second.

`OC(COc1ccccc1-c1ccno1)CN1CCc2ccccc2C1` (stereo not shown) [Compound D16] and `COc1ccccc1-c1cccc(OCC(O)CN2CCc3ccccc3C2)c1` (stereo not shown) [Compound D71] fall in the same range of IC50: 1 to 10 µM for the first, 1 to 10 µM for the second.

`OC(COc1cccc(OCc2ccccc2)c1)CN1CCc2ccccc2C1` (stereo not shown) [Compound D20] and `OC(COc1cccc(-c2ccccn2)c1)CN1CCc2ccccc2C1` (stereo not shown) [Compound D98] fall in the same range of IC50: 1 to 10 µM for the first, 1 to 10 µM for the second.

`OC(COC1CCN(Cc2ccccc2)C1)CN1CCc2ccccc2C1` (stereo not shown) [Compound D35] and `OC(COC1CCN(c2ccccc2)C1)CN1CCc2ccccc2C1` (stereo not shown) [Compound D175] fall in the same range of IC50: 1 to 10 µM for the first, 1 to 10 µM for the second.

First: COc1ccc(Cn2nccc2-c2ccc(OC[C@@H](O)CN3CCc4ccccc4C3)cc2)cc1 [Compound D38]
Second: OC(COc1ccc(-c2ccn[nH]2)cc1)CN1CCc2ccccc2C1 (stereo not shown) [Compound D48]
The IC50 of the first is higher: > 40 µM for the first, 1 to 10 µM for the second.

`OC(COc1cccc(-c2cccnc2)c1)CN1CCc2ccccc2C1` (stereo not shown) [Compound D40] and `OC(COc1cccc(-c2ccncc2)c1)CN1CCc2ccccc2C1` (stereo not shown) [Compound D97] fall in the same range of IC50: 1 to 10 µM for the first, 1 to 10 µM for the second.

`Cn1cc(-c2cccc(OCC(O)CN3CCc4ccccc4C3)c2)cn1` (stereo not shown) [Compound D44] and `Cc1ccc(-c2cccc(OCC(O)CN3CCc4ccccc4C3)c2)cn1` (stereo not shown) [Compound D78] fall in the same range of IC50: 1 to 10 µM for the first, 1 to 10 µM for the second.

`OC(COCc1ccc(CN2CCOCC2)cc1)CN1CCc2ccccc2C1` (stereo not shown) [Compound D46] and `OCc1ccc(-c2cccc(OCC(O)CN3CCc4ccccc4C3)c2)cc1` (stereo not shown) [Compound D73] fall in the same range of IC50: 1 to 10 µM for the first, 1 to 10 µM for the second.

First: CC1c2ccccc2CCN1CC(O)COc1cccc(CNC2CCCC2)c1 (stereo not shown) [Compound D50]
Second: CC1Cc2ccccc2CN1CC(O)COc1cccc(CNC2CCCC2)c1 (stereo not shown) [Compound D51]
The IC50 of the first is lower: 1 to 10 µM for the first, > 40 µM for the second.

`COc1cccc2c1CCN(CC(O)COc1cccc(CNC3CCCC3)c1)C2` (stereo not shown) [Compound D54] and `CC1CN(CC(O)COc2cccc(CNC3CCCC3)c2)Cc2ccccc21` (stereo not shown) [Compound D56] cannot be ordered by IC50: > 40 µM for the first, > 40 µM for the second.

`OC(COc1cccc(-c2cccc(Oc3ccccc3)c2)c1)CN1CCc2ccccc2C1` (stereo not shown) [Compound D55] and `OC(COc1cccc(-c2cccc(Cl)c2)c1)CN1CCc2ccccc2C1` (stereo not shown) [Compound D91] fall in the same range of IC50: 1 to 10 µM for the first, 1 to 10 µM for the second.

First: CN(C)S(=O)(=O)c1cccc(-c2cccc(OCC(O)CN3CCc4ccccc4C3)c2)c1 (stereo not shown) [Compound D61]
Second: OC(COc1cccc(-c2cccc(C(F)(F)F)c2)c1)CN1CCc2ccccc2C1 (stereo not shown) [Compound D87]
The IC50 of the first is higher: > 40 µM for the first, 1 to 10 µM for the second. The second is the more potent here.

`COc1ccc(Cl)c(-c2cccc(OCC(O)CN3CCc4ccccc4C3)c2)c1` (stereo not shown) [Compound D64] and `Oc1ccc(-c2cccc(OCC(O)CN3CCc4ccccc4C3)c2)cc1F` (stereo not shown) [Compound D70] fall in the same range of IC50: 1 to 10 µM for the first, 1 to 10 µM for the second.

Compared with `Cn1cnc2ccc(N3CCCC(OCC(O)CN4CCc5ccccc5C4)C3)cc21` (stereo not shown) [Compound D66], `Cn1cnc2ccc(-c3nccc(NCC(O)CN4CCc5ccccc5C4)n3)cc21` (stereo not shown) [Compound D120] is higher in IC50: 0.101 to 1 µM for the first, 1 to 10 µM for the second. The first is the more potent here.

`OC(COc1cccc(-c2cncc(F)c2)c1)CN1CCc2ccccc2C1` (stereo not shown) [Compound D76] and `OC(COc1cccc(-c2cncnc2)c1)CN1CCc2ccccc2C1` (stereo not shown) [Compound D140] fall in the same range of IC50: 1 to 10 µM for the first, 1 to 10 µM for the second.

`OC(COc1cccc(-c2ccc(F)cc2)c1)CN1CCc2ccccc2C1` (stereo not shown) [Compound D77] and `Oc1ccc(-c2cccc(OCC(O)CN3CCc4ccccc4C3)c2)cc1` (stereo not shown) [Compound D96] fall in the same range of IC50: 1 to 10 µM for the first, 1 to 10 µM for the second.

`O=C(NC1CCOCC1)c1cccc(NCC(O)CN2CCc3ccccc3C2)c1` (stereo not shown) [Compound D79] and `CN(CC(O)CN1CCc2ccccc2C1)c1cccc(C(=O)NC2CCOCC2)c1` (stereo not shown) [Compound D99] fall in the same range of IC50: 10 to 40 µM for the first, 10 to 40 µM for the second.

`COc1cccc2c1CN(CC(O)COc1cccc(-c3ccc4ncn(C)c4c3)c1)CC2` (stereo not shown) [Compound D100] and `COc1cccc2c1CCN(CC(O)COc1cccc(-c3ccc4ncn(C)c4c3)c1)C2` (stereo not shown) [Compound D142] fall in the same range of IC50: 1 to 10 µM for the first, 1 to 10 µM for the second.

`CC1CN(CC(O)COc2cccc(-c3ccc4ncn(C)c4c3)c2)Cc2ccccc21` (stereo not shown) [Compound D101] and `CC1Cc2ccccc2CN1CC(O)COc1cccc(-c2ccc3ncn(C)c3c2)c1` (stereo not shown) [Compound D122] fall in the same range of IC50: 1 to 10 µM for the first, 1 to 10 µM for the second.

`Cn1cc2cc(-c3cccc(OCC(O)CN4CCc5ccccc5C4)c3)ccc2n1` (stereo not shown) [Compound D115] and `OC(COc1cccc(-c2ccc(C(F)(F)F)cc2)c1)CN1CCc2ccccc2C1` (stereo not shown) [Compound D133] fall in the same range of IC50: 1 to 10 µM for the first, 1 to 10 µM for the second.

`OC(COc1cccc(-c2cc(Cl)cc(C(F)(F)F)c2)c1)CN1CCc2ccccc2C1` (stereo not shown) [Compound D128] and `OC(COc1cccc(-c2ccncc2F)c1)CN1CCc2ccccc2C1` (stereo not shown) [Compound D190] fall in the same range of IC50: 1 to 10 µM for the first, 1 to 10 µM for the second.

`Cn1cnc2ccc(-c3cccc(OCC(O)CN4CCc5ccccc5C4Cc4ccccc4)c3)cc21` (stereo not shown) [Compound D143] and `Cn1cnc2ccc(-c3cccc(OCC(O)CN4CCc5ccccc5C4COc4ccccc4)c3)cc21` (stereo not shown) [Compound D178] cannot be ordered by IC50: > 40 µM for the first, > 40 µM for the second.

First: CCOC(=O)CC1c2ccccc2CCN1CC(O)COc1cccc(-c2ccc3ncn(C)c3c2)c1 (stereo not shown) [Compound D144]
Second: COc1ccc2c(c1)CN(CC(O)COc1cccc(-c3ccc4ncn(C)c4c3)c1)CC2 (stereo not shown) [Compound D177]
The IC50 of the first is lower: 1 to 10 µM for the first, 10 to 40 µM for the second.

Compared with `COc1cc2c(cc1OC)CN(CC(O)COc1cccc(-c3ccc4ncn(C)c4c3)c1)CC2` (stereo not shown) [Compound D146], `Cn1cnc2nc(-c3cccc(OCC(O)CN4CCc5ccccc5C4)c3)ncc21` (stereo not shown) [Compound D165] is lower in IC50: > 40 µM for the first, 1 to 10 µM for the second. The second is the more potent here.

`COc1ncc(-c2cccc(OCC(O)CN3CCc4ccccc4C3)c2)cn1` (stereo not shown) [Compound D153] and `OC(COc1cccc(-c2cnccn2)c1)CN1CCc2ccccc2C1` (stereo not shown) [Compound D155] fall in the same range of IC50: 1 to 10 µM for the first, 1 to 10 µM for the second.

`O=C(Nc1cccc(OCC(O)CN2CCc3ccccc3C2)c1)c1cnco1` (stereo not shown) [Compound D158] and `O=C(Nc1cccc(OCC(O)CN2CCc3ccccc3C2)c1)c1cocn1` (stereo not shown) [Compound D159] fall in the same range of IC50: 1 to 10 µM for the first, 1 to 10 µM for the second.

`O=C(c1cncc(-c2cccc(OCC(O)CN3CCc4ccccc4C3)c2)c1)N1CCCC1` (stereo not shown) [Compound D181] and `O=C(Nc1cccc(OCC(O)CN2CCc3ccccc3C2)c1)c1ccnnc1` (stereo not shown) [Compound D184] fall in the same range of IC50: 1 to 10 µM for the first, 1 to 10 µM for the second.

— patent US20150344457A1, “METHODS OF INHIBITING PRMT5” (EPIZYME, INC., priority 2012, published 2015)
